Article PMC9323911, “Comparative Metabolomics Study of the Impact of Articaine and Lidocaine on the Metabolism of SH-SY5Y Neuronal Cells” (Metabolites, 2022)
Counter-ions that a name gives are not always drawn. Like-named read-outs stand apart in the source and are kept apart here.

Assays:
[1] = test system: SH-SY5Y cells; assay: 1H NMR metabolic profiling of culture medium (consumption/excretion); assay type: cell-based, human; conditions: vs control
Procedure: (§1) Afterward, the medium was collected and the dishes washed with cold PBS, immediately before the solvent extraction procedure described below. Unexposed cells were used as controls. Each assay comprised duplicates of each condition and three independent assays were performed, giving a total of 6 replicates per condition.
(§2) The culture medium was collected from each plate (including cell-free medium incubated under the same conditions) in conical tubes and centrifuged at 1000× g for 10 min. Furthermore, 300 µL of the supernatant were collected for protein precipitation, as described by Kostidis et al.. Briefly, 600 µL of 100% methanol (v/v) at −80 °C were added to the collected supernatant ([…]). […] The supernatant was transferred to another tube and vacuum dried (SpeedVac, Eppendorf, Hamburg, Germany). For extracting cellular metabolites, a biphasic extraction protocol (methanol:chloroform:water; 1:1:0.7) was used as previously described. The resulting polar extracts were dried under vacuum in a Speedvac concentrator, and the lipophilic extracts were dried under a nitrogen flow. All extracts were stored at −80 °C prior to NMR analysis.
(§3) For NMR analysis, dried aqueous and lipid extracts were dissolved, respectively, in 600 μL of deuterated phosphate buffer (PBS 100 mM, pH 7.4) containing 0.1 mM 3-(trimethylsilyl) propionic acid (TSP-d4), and 600 μL of deuterated chloroform containing 0.03% tetramethylsilane (TMS). […] Two-dimensional NMR spectra, namely, ^1H-^1H TOCSY, J-resolved and ^1H-^13C HSQC spectra, were also recorded for selected samples to aid metabolite identification. Signal assignment was based on matching 1D and 2D spectral information to reference spectra available in Chenomx 9.0 (Edmonton, AB, Canada), BBIOREFCODE-2–0–0 (Bruker Biospin, Rheinstetten, Germany) and HMDB.
(§4) To provide a quantitative measurement of metabolic variations, spectral integration and total area normalization of selected signals (vide Supplementary Table S1) were carried out in Amix-Viewer 3.9.15 (Bruker Biospin, Rheinstetten, Germany). For each metabolite, the percentage of variation (or fold change) in exposed samples was calculated relative to respective controls, along with the effect size (ES) and statistical significance (p-value). The variations with larger magnitude (|ES| > 0.8) were expressed in a heatmap.

[2] = test system: SH-SY5Y human neuroblastoma cells; assay: resazurin cell viability assay; assay type: cell-based; conditions: for IC50: Homo sapiens, SH-SY5Y, read-out: IC50 (cell viability)
Procedure: Undifferentiated SH-SY5Y human neuroblastoma cells (ATCC® CRL-2266) were cultured in DMEM:F12 medium supplemented with 10% FBS and 1% antibiotic (100 IU/mLof penicillin and 100 μg/mL of streptomycin sulfate). Cells were grown in 75 cm^2 bottles and incubated at 37 °C under a humidified atmosphere with 5% CO2 for 48 h, until reaching semiconfluency. All experiments were performed on cells between passages 4 to 8.
To assess cell viability, the resazurin test was used. This assay evaluates the ability of viable cells to reduce resazurin (blue color) to a fluorescent, pink-colored compound, resorufin. Briefly, the cells were plated in a 96-well plate 24 h before treatment, at a density of 4 × 10^4 cells/mL. […] Each LA was solubilized in complete DMEM:F12 medium. Subsequently, the medium was removed, the wells were washed with 5 mM PBS and the cells were incubated with 10% resazurin for 4 h. At the end of this period, the absorbance was measured at 570 nm (λ1) and at 600 nm (λ2) (Multiskan™ FC Microplate Photometer, Thermofisher). The experiment was performed in triplicate and the differences between the two wavelengths (λ1–λ2) were calculated. The results were expressed in % of cell viability in relation to control and analyzed in GraphPad Prism® 6.0.

[3] = test system: SH-SY5Y cells; assay: 1H NMR metabolic profiling of cell aqueous extracts; assay type: cell-based, human; conditions: for 2-Ketovaline, variation in relation to control / 2-Oxoisoleucine, variation in relation to control / ATP + ADP, variation in relation to control / Alanine, variation in relation to control / Asparagine, variation in relation to control / Aspartate, variation in relation to control / Creatine, variation in relation to control / Cystathionine, variation in relation to control / Formate, variation in relation to control / Glutamate, variation in relation to control / Glutamine, variation in relation to control / Glycerophosphocholine, variation in relation to control / Glycine, variation in relation to control / Histidine, variation in relation to control / Isobutyrate, variation in relation to control / Isoleucine, variation in relation to control / Lactate, variation in relation to control / Leucine, variation in relation to control / NAD+, variation in relation to control / Panthothenic, variation in relation to control / Phenylalanine, variation in relation to control / Phosphocholine, variation in relation to control / Phosphocreatine, variation in relation to control / Proline, variation in relation to control / UDP-GlcNAc, variation in relation to control / Valine, variation in relation to control / beta-Alanine, variation in relation to control / myo-Inositol, variation in relation to control: aqueous extract; for intracellular glutamate level (in words) / intracellular phosphocholine level (in words): vs control
Procedure: as §1, §2, §3
Principal Component Analysis (PCA) and Partial Least Squares-Discriminant Analysis (PLS-DA) were applied and the results were visualized through factorial co-ordinates (‘scores’) and factorial contributions (‘loadings’) colored according to variable importance to the projection (VIP). For PLS-DA models, Q^2 and R^2 values, respectively reflecting predictive capability and explained variance, obtained from sevenfold internal cross validation, were used to assess the robustness of group discrimination.
as §4

## CCCNC(C)C(=O)Nc1c(C)csc1C(=O)OC (centres unmarked) [ATC, Articaine hydrochloride]
[1]; IC10, 24 h
  pyruvate consumption: increased significantly
[1]; IC50, 24 h
  pyruvate consumption: no difference to controls
[2]; 24 h exposure
  IC10 (concentration reducing cell viability by 10%): 1.2 mM
  IC50: 3 ± 0.2 mM
[2]; 20 min, 20 min exposure
  IC50: > 10 mM
[2]; 1 h exposure
  IC50: > 10 mM
[2]; 4 h exposure
  IC50: 5.4 ± 0.3 mM
[2]; shortest exposure durations (20 min and 1 h)
  IC50: > 10 mM
[3]; IC10, 24 h
  2-Ketovaline, variation in relation to control: 24.7%
  2-Oxoisoleucine, variation in relation to control: 33.8%
  ATP + ADP, variation in relation to control: -8.0%
  Alanine, variation in relation to control: 0.0%
  Asparagine, variation in relation to control: -24.6%
  Aspartate, variation in relation to control: -17.2%
  Creatine, variation in relation to control: 9.0%
  Cystathionine, variation in relation to control: 10.9%
  Formate, variation in relation to control: 0.0%
  Glutamate, variation in relation to control: -6.3%
  Glutamine, variation in relation to control: -10.8%
  Glycerophosphocholine, variation in relation to control: -11.3%
  Glycine, variation in relation to control: 0.0%
  Histidine, variation in relation to control: 29.6%
  Isobutyrate, variation in relation to control: 0.0%
  Isoleucine, variation in relation to control: 30.5%
  Lactate, variation in relation to control: 0.0%
  Leucine, variation in relation to control: 39.9%
  NAD+, variation in relation to control: 0.0%
  Panthothenic, variation in relation to control: 42.7%
  Phenylalanine, variation in relation to control: 43.6%
  Phosphocholine, variation in relation to control: 0.0%
  Phosphocreatine, variation in relation to control: 0.0%
  Proline, variation in relation to control: 0.0%
  UDP-GlcNAc, variation in relation to control: -18.7%
  Valine, variation in relation to control: 27.2%
  beta-Alanine, variation in relation to control: -7.4%
  myo-Inositol, variation in relation to control: -19.0%
[3]; IC50, 24 h
  2-Ketovaline, variation in relation to control: 28.3%
  2-Oxoisoleucine, variation in relation to control: 34.4%
  ATP + ADP, variation in relation to control: -14.0%
  Alanine, variation in relation to control: 21.3%
  Asparagine, variation in relation to control: 26.5%
  Aspartate, variation in relation to control: 23.7%
  Creatine, variation in relation to control: 14.7%
  Cystathionine, variation in relation to control: 0.0%
  Formate, variation in relation to control: 40.5%
  Glutamate, variation in relation to control: 25.8%
  Glutamine, variation in relation to control: 17.8%
  Glycerophosphocholine, variation in relation to control: -75.7%
  Glycine, variation in relation to control: 42.8%
  Histidine, variation in relation to control: 37.5%
  Isobutyrate, variation in relation to control: -78.2%
  Isoleucine, variation in relation to control: 44.5%
  Lactate, variation in relation to control: -17.5%
  Leucine, variation in relation to control: 60.3%
  NAD+, variation in relation to control: 11.9%
  Panthothenic, variation in relation to control: 40.0%
  Phenylalanine, variation in relation to control: 50.2%
  Phosphocholine, variation in relation to control: 0.0%
  Phosphocreatine, variation in relation to control: -18.9%
  Proline, variation in relation to control: -17.8%
  UDP-GlcNAc, variation in relation to control: -85.9%
  Valine, variation in relation to control: 44.8%
  beta-Alanine, variation in relation to control: -60.7%
  myo-Inositol, variation in relation to control: -42.6%
  intracellular glutamate level (in words): increased
  intracellular phosphocholine level (in words): not altered

## CCN(CC)CC(=O)Nc1c(C)cccc1C [LDC, lidocaine hydrochloride]
[1]; IC10, 24 h
  pyruvate consumption: increased significantly
[1]; IC50, 24 h
  pyruvate consumption: no difference to controls
[2]; 24 h exposure
  IC10 (concentration reducing cell viability by 10%): 1.2 mM
[2]; 20 min
  IC50: 7.3 ± 0.3 mM
[2]; 1 h
  IC50: 7.4 ± 0.3 mM
[2]; 4 h
  IC50: 5.7 ± 0.2 mM
[2]; 24 h
  IC50: 3.6 mM
[2]
  IC50: ~7 mM
[3]; IC10, 24 h
  2-Ketovaline, variation in relation to control: 0.0%
  2-Oxoisoleucine, variation in relation to control: 0.0%
  ATP + ADP, variation in relation to control: -10.4%
  Alanine, variation in relation to control: 0.0%
  Asparagine, variation in relation to control: -18.9%
  Aspartate, variation in relation to control: -12.9%
  Creatine, variation in relation to control: 24.9%
  Cystathionine, variation in relation to control: 12.1%
  Formate, variation in relation to control: 17.0%
  Glutamate, variation in relation to control: -16.3%
  Glutamine, variation in relation to control: -22.0%
  Glycerophosphocholine, variation in relation to control: -11.7%
  Glycine, variation in relation to control: 16.6%
  Histidine, variation in relation to control: 11.8%
  Isobutyrate, variation in relation to control: -14.4%
  Isoleucine, variation in relation to control: 18.2%
  Lactate, variation in relation to control: 0.0%
  Leucine, variation in relation to control: 33.4%
  NAD+, variation in relation to control: 0.0%
  Panthothenic, variation in relation to control: 11.9%
  Phenylalanine, variation in relation to control: 22.7%
  Phosphocholine, variation in relation to control: 14.1%
  Phosphocreatine, variation in relation to control: -16.1%
  Proline, variation in relation to control: -15.8%
  UDP-GlcNAc, variation in relation to control: -10.8%
  Valine, variation in relation to control: 15.5%
  beta-Alanine, variation in relation to control: -10.0%
  myo-Inositol, variation in relation to control: -16.9%
[3]; IC50, 24 h
  2-Ketovaline, variation in relation to control: 16.5%
  2-Oxoisoleucine, variation in relation to control: 21.6%
  ATP + ADP, variation in relation to control: -23.0%
  Alanine, variation in relation to control: 17.1%
  Asparagine, variation in relation to control: 27.8%
  Aspartate, variation in relation to control: 12.1%
  Creatine, variation in relation to control: 17.6%
  Cystathionine, variation in relation to control: -28.3%
  Formate, variation in relation to control: 58.8%
  Glutamate, variation in relation to control: 0.0%
  Glutamine, variation in relation to control: 43.0%
  Glycerophosphocholine, variation in relation to control: -33.4%
  Glycine, variation in relation to control: 48.8%
  Histidine, variation in relation to control: 22.5%
  Isoleucine, variation in relation to control: 33.4%
  Lactate, variation in relation to control: -12.4%
  Leucine, variation in relation to control: 54.2%
  NAD+, variation in relation to control: 16.7%
  Panthothenic, variation in relation to control: 14.7%
  Phenylalanine, variation in relation to control: 36.2%
  Phosphocholine, variation in relation to control: 23.7%
  Phosphocreatine, variation in relation to control: -42.3%
  Proline, variation in relation to control: -38.0%
  UDP-GlcNAc, variation in relation to control: -38.7%
  Valine, variation in relation to control: 33.9%
  beta-Alanine, variation in relation to control: -72.1%
  myo-Inositol, variation in relation to control: -50.6%
  intracellular glutamate level (in words): not altered
  intracellular phosphocholine level (in words): increased
